# From patent US10017542B2, “Antimicrobial peptides and methods of use thereof” (priority 2015, dated 2018)
# Where a SMILES comes first, the peptide text is derived from it. [ ]: non-standard residue; d: D form. Orn = NCCC[C@H](N)C(=O)O
# Columns and labels:
# Pseudomonas Xen5 = assay: Antibacterial activity, microtiter dilution method; type: cell-based; settings: 24 hours, 37 degrees
# A. baumanii = settings: 24 h
# Procedure: (§1) Briefly, cells were grown overnight in media specified for each strain, and were diluted in the same media. Serial dilutions of the peptides were added to microtiter plates in a volume of 50 ul, followed by the addition of 50 ul of bacteria or fungi, 5×10^5 CFU/ml. Plates were incubated at 37 degrees for 24 hours and the Minimum Inhibitory Concentrations (MICs) were determined as the lowest peptide concentration that inhibited 50% of bacterial growth.
# E. coli = settings: 24 h
# Procedure: (§2) Measurement of antimicrobial and anti-fungal activity was determined by a standard micrometer dilution method. Briefly, cells were grown overnight in media specified for each strain, and were diluted in the same media. Serial dilutions of the peptides were added to microtiter plates in a volume of 50 ul, followed by the addition of 50 ul of bacteria or fungi, 5×10^5 CFU/ml. Plates were incubated at 37 degrees for 24 hours and the Minimum Inhibitory Concentrations (MICs) were determined as the lowest peptide concentration that inhibited 50% of bacterial growth.
# E. cloaca = settings: 24 h
# Procedure: as §2
# [1] = system: bacterial isolates of Table 7 (A. baumanii, E. coli, E. cloaca, Pseudomonas, Staphylococcus)
# Procedure: as §1
# B. thailandensis = assay: microbe, parasite or virus in culture; settings: Burkholderia thailandensis, 3 h
# [2] = system: all bacteria tested in Table 9; assay: In vitro bactericidal activity screening, average across all bacteria; type: cell-based; settings: average value across all bacteria
# [3] = system: Burkholderia cepacia strain Toronto (B.c.); assay: In vitro bactericidal activity screening, endpoint titration; settings: last concentration giving greater than two-logs reduction in CFU vs. saline control, 10^6 CFU/ml, 37° C.
# [4] = system: Actinobacillus actinomycetemcomitans strain A7154 (A.a.); assay: as above; settings: last concentration giving greater than two-logs reduction in CFU vs. saline control
# [5] = system: Fusobacterium nucleatum strain 1594 (F.n.); assay: as above; settings: last concentration giving greater than two-logs reduction in CFU vs. saline control
# [6] = system: Escherichia coli strain (E.c.); assay: as above; settings: last concentration giving greater than two-logs reduction in CFU vs. saline control
# [7] = system: Pseudomonas aeruginosa strain (P.a.); assay: as above; settings: last concentration giving greater than two-logs reduction in CFU vs. saline control
Compound,IC50 (Pseudomonas Xen5),IC50 (A. baumanii),IC50 (E. coli),IC50 (E. cloaca),IC50 [1],EC50 (B. thailandensis),Two-log Reduction Concentration Ave. [2],Two-log Reduction Concentration [3],Two-log Reduction Concentration [4],Two-log Reduction Concentration [5],Two-log Reduction Concentration [6],Two-log Reduction Concentration [7]
"CC[C@H](C)[C@H](NC(=O)[C@H](CCCNC(=N)N)NC(=O)[C@H](C)NC(=O)[C@H](CC(C)C)NC(=O)[C@@H](N)CCCNC(=N)N)C(=O)N[C@H](C(=O)NCC(=O)NCC(=O)N[C@@H](Cc1ccccc1)C(=O)N[C@@H](C)C(=O)N[C@@H](CCCN)C(=O)N[C@@H](CCCN)C(=O)N[C@@H](Cc1ccccc1)C(=O)N[C@@H](C)C(=O)N[C@@H](CCCN)C(=O)N[C@@H](CCCN)C(=O)N[C@@H](Cc1ccccc1)C(=O)N[C@@H](CCCN)C(=O)N[C@@H](CCCN)C(=O)N[C@@H](Cc1ccccc1)C(=O)N[C@@H](C)C(=O)N[C@@H](CCCN)C(=O)N[C@@H](CCCN)C(=O)N[C@@H](Cc1ccccc1)C(=O)N[C@@H](C)C(=O)N[C@@H](CCCN)C(=O)N[C@@H](Cc1ccccc1)C(=O)N[C@@H](C)C(=O)N[C@@H](Cc1ccccc1)C(=O)N[C@@H](C)C(=O)N[C@@H](Cc1ccccc1)C(=O)O)C(C)C [RP500, RLARIVGGFAOOFAOOFOOFAOOFAOFAFAF] (H-RLARIVGGFA[Orn][Orn]FA[Orn][Orn]F[Orn][Orn]FA[Orn][Orn]FA[Orn]FAFAF-OH; N-terminus and C-terminus assumed)",0.5 µM,7.6 µM,3.8 µM,7.6 µM,5.3 µM,–,–,–,–,–,–,–
CC(C)(O/N=C(\C(=O)N[C@@H]1C(=O)N2C(C(=O)[O-])=C(C[n+]3ccccc3)CS[C@H]12)c1csc(N)n1)C(=O)O [Ceftazidime],–,–,–,–,–,39.1 µM,–,–,–,–,–,–
FAFAFKAFKKAFKKFKKAFKKAFGPGRFAKKFAKKFKKFAKKFAKFAFAF [RP-433],–,–,–,–,–,–,0.46 μM,0.12 μM,0.10 μM,1.25 μM,0.63 μM,0.90 μM
FARKFLKKFKRFAKKFVRFAFAF [SEQ ID NO: 6],–,–,–,–,–,–,1.67 μM,1.25 μM,0.40 μM,3.75 μM,0.63 μM,–
